Assays:
[1] = Odour threshold by GC detection at the sniffing port (panel of 5 persons); conditions: mean of individual thresholds of 5 panelists
Protocol: For each compound the odour threshold value was determined by gas chromatograph (GC) detection. […] Each panelist (panel of 5 persons) smelled blind and pressed a button upon perceiving an odor. If the recorded time matched the retention time, the sample was further diluted. The last quantity detected at the correct retention time was the panelist's individual odor threshold. The final threshold value for a given test compound was obtained as the mean value of the individual threshold levels.
Further information of the technique described hereinabove may be found in N. Neuner-Jehle, F. Etzweiler. ‘Measuring of Odors’, in P. Müller. D. Lamparsky (Eds,). ‘Perfumes. Art, Science and Technology’, Elsevier Appl. Science Publ., London. 1991: pp. 153.

[2] = Vapour pressure by saturated headspace trapping and GC quantification; type: physicochemical; conditions: headspace concentration at constant 25° C., mean of three independent measurements
Protocol: For each compound the vapour pressure was determined via the following procedure: 500 mg of the test compound was added to a headspace container which was then scaled. The container was incubated at constant 25° C. until the compound reached equilibrium between the gas and the liquid phase. An exactly defined but variable volume between 0.5-1.0 L of this saturated headspace was trapped on a micro filter using Porapak Q as sorbent. After filter extraction with 30-100 μl methyl tert.-butyl ether), an aliquot of the extract was analyzed by gas chromatograph (GC). Quantification was performed by the external standard calibration method. The concentration in the original headspace was calculated (in terms of μg/l) from the headspace volume sucked through the micro filter and the aliquot of the filter extract injected into the gas chromatograph. The final headspace concentration value for a given test compound was obtained as the mean value of three independent measurements.
Further information of the technique described hereinabove may be found in the article of F. Etzweiler, E. Senn, N. Neuner-Jehle, Ber. Bunsen-Ges. Phys. Chem. 1984, 88, 578.

Structure (SMILES)	Odour Threshold [1]	Vapour Pressure [2]
CC/C(=C\C(C)C)C(C)OC(C)(C)COC(=O)C1CC1 (centres unmarked) [Example 2, (3″E)-2′-(3″-Ethyl-5″-methylhex-3″-en-2″yloxy)-2′-methylpropyl cyclopropanecarboxylate]	2.2 ng/L	10.61 µg/L
C/C(=C\C(C)C)C(C)OC(C)(C)COC(=O)C1CC1 (centres unmarked) [(3″E)-2-(3,5-Dimethylhex-3-en-2-yloxy)-2-methylpropyl cyclopropanecarboxylate, reference compound]	5.9 ng/L	27.57 µg/L
CC/C(=C\C(C)C)C(C)OC(C)(C)COC(=O)C1CCC1 (centres unmarked) [Example 4, (3″E)-2′-(3″-Ethyl-5″-methylhex-3″-en-2″-yloxy)-2′-methylpropyl cyclobutanecarboxylate]	–	4.76 µg/L

From patent US20130065969A9, “Odour Compounds” (priority 2009, published 2013)
